Laboratory results published in PubChem BioAssay (NCI).
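Exposure lasted 48 hours, with cells grown in 96-well plates and compounds tested at five concentrations. At the GI50, growth is halved. TGI: total growth inhibition.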

Columns and labels:
Experiment in all cases: growth of human tumour cells (NCI), 48 h
A498 renal = tested on: A498 renal
ACHN renal = tested on: ACHN renal
CAKI-1 renal = tested on: CAKI-1 renal
CCRF-CEM leukemia = tested on: CCRF-CEM leukemia
DU-145 prostate = tested on: DU-145 prostate
HCT-15 colon = tested on: HCT-15 colon
HL-60(TB) leukemia = tested on: HL-60(TB) leukemia
KM12 colon = tested on: KM12 colon
M14 melanoma = tested on: M14 melanoma
MDA-MB-435 = tested on: MDA-MB-435
MOLT-4 leukemia = tested on: MOLT-4 leukemia
NCI-H522 lung = tested on: NCI-H522 lung
NCI/ADR-RES ovarian = tested on: NCI/ADR-RES ovarian
OVCAR-3 ovarian = tested on: OVCAR-3 ovarian
OVCAR-4 ovarian = tested on: OVCAR-4 ovarian
OVCAR-5 ovarian = tested on: OVCAR-5 ovarian
RPMI-8226 leukemia = tested on: RPMI-8226 leukemia
SK-OV-3 ovarian = tested on: SK-OV-3 ovarian
SNB-19 CNS = tested on: SNB-19 CNS
SW-620 colon = tested on: SW-620 colon
T-47D breast = tested on: T-47D breast
TK-10 renal = tested on: TK-10 renal
UACC-257 melanoma = tested on: UACC-257 melanoma
UO-31 renal = tested on: UO-31 renal
786-0 renal = tested on: 786-0 renal
A549 NSCLC = tested on: A549 NSCLC
COLO 205 colon = tested on: COLO 205 colon
EKVX NSCLC = tested on: EKVX NSCLC
HCC-2998 colon = tested on: HCC-2998 colon
HCT-116 colon = tested on: HCT-116 colon
HOP-62 NSCLC = tested on: HOP-62 NSCLC
HOP-92 NSCLC = tested on: HOP-92 NSCLC
HS 578T breast = tested on: HS 578T breast
HT29 colon = tested on: HT29 colon
K-562 leukemia = tested on: K-562 leukemia
LOX IMVI melanoma = tested on: LOX IMVI melanoma
MALME-3M melanoma = tested on: MALME-3M melanoma
MCF7 breast = tested on: MCF7 breast
MDA-MB-231 breast = tested on: MDA-MB-231 breast
NCI-H226 lung = tested on: NCI-H226 lung
NCI-H23 lung = tested on: NCI-H23 lung
NCI-H460 lung = tested on: NCI-H460 lung
OVCAR-8 ovarian = tested on: OVCAR-8 ovarian
PC-3 prostate = tested on: PC-3 prostate
RXF 393 renal = tested on: RXF 393 renal
SF-268 CNS = tested on: SF-268 CNS
SF-295 CNS = tested on: SF-295 CNS
SF-539 CNS = tested on: SF-539 CNS
SK-MEL-2 melanoma = tested on: SK-MEL-2 melanoma
SK-MEL-28 melanoma = tested on: SK-MEL-28 melanoma
SK-MEL-5 melanoma = tested on: SK-MEL-5 melanoma
SN12C renal = tested on: SN12C renal
SNB-75 CNS = tested on: SNB-75 CNS
SR leukemia = tested on: SR leukemia
U251 CNS = tested on: U251 CNS
UACC-62 melanoma = tested on: UACC-62 melanoma

COc1cc(C(=O)/C=C/c2ccc(OCCCCCC[P+](c3ccccc3)(c3ccccc3)c3ccccc3)cc2)cc(OC)c1OC
GI50 (A498 renal): 0.71 µM
TGI (A498 renal): 1.97 µM
GI50 (ACHN renal): 1.5 µM
TGI (ACHN renal): 2.82 µM
GI50 (CAKI-1 renal): 1.64 µM
TGI (CAKI-1 renal): 2.99 µM
GI50 (CCRF-CEM leukemia): 0.557 µM
TGI (CCRF-CEM leukemia): 3.09 µM
GI50 (DU-145 prostate): 0.698 µM
TGI (DU-145 prostate): 1.96 µM
GI50 (HCT-15 colon): 1.6 µM
TGI (HCT-15 colon): 3.13 µM
GI50 (HL-60(TB) leukemia): 0.227 µM
TGI (HL-60(TB) leukemia): 0.643 µM
GI50 (KM12 colon): 0.355 µM
TGI (KM12 colon): 1.31 µM
GI50 (M14 melanoma): 0.971 µM
TGI (M14 melanoma): 3.18 µM
GI50 (MDA-MB-435): 0.337 µM
TGI (MDA-MB-435): 1.14 µM
GI50 (MOLT-4 leukemia): 0.559 µM
TGI (MOLT-4 leukemia): 3 µM
GI50 (NCI-H522 lung): 0.342 µM
TGI (NCI-H522 lung): 2.09 µM
GI50 (NCI/ADR-RES ovarian): 3.58 µM
TGI (NCI/ADR-RES ovarian): > 100 µM
GI50 (OVCAR-3 ovarian): 0.347 µM
TGI (OVCAR-3 ovarian): 1.16 µM
GI50 (OVCAR-4 ovarian): 0.374 µM
TGI (OVCAR-4 ovarian): 1.48 µM
GI50 (OVCAR-5 ovarian): 0.754 µM
TGI (OVCAR-5 ovarian): 2.1 µM
GI50 (RPMI-8226 leukemia): 0.214 µM
TGI (RPMI-8226 leukemia): 0.703 µM
GI50 (SK-OV-3 ovarian): 1.32 µM
TGI (SK-OV-3 ovarian): 2.7 µM
GI50 (SNB-19 CNS): 0.341 µM
TGI (SNB-19 CNS): 1.31 µM
GI50 (SW-620 colon): 0.358 µM
TGI (SW-620 colon): 1.36 µM
GI50 (T-47D breast): 0.261 µM
TGI (T-47D breast): 1.77 µM
GI50 (TK-10 renal): 1.34 µM
TGI (TK-10 renal): 2.81 µM
GI50 (UACC-257 melanoma): 0.298 µM
TGI (UACC-257 melanoma): 1.26 µM
GI50 (UO-31 renal): 1.46 µM
TGI (UO-31 renal): 2.78 µM

CCCCNCC(O)c1cc2c(Cl)cc(Cl)cc2c2cc(C(F)(F)F)ccc12 (centres undefined)
GI50 (786-0 renal): 1.51 µM
TGI (786-0 renal): 3.43 µM
GI50 (A498 renal): 1.36 µM
TGI (A498 renal): 2.7 µM
GI50 (A549 NSCLC): 1.82 µM
TGI (A549 NSCLC): 3.4 µM
GI50 (ACHN renal): 1.74 µM
TGI (ACHN renal): 3.45 µM
GI50 (CAKI-1 renal): 1.71 µM
TGI (CAKI-1 renal): 3.44 µM
GI50 (CCRF-CEM leukemia): 2.5 µM
TGI (CCRF-CEM leukemia): 5.17 µM
GI50 (COLO 205 colon): 1.78 µM
TGI (COLO 205 colon): 3.31 µM
GI50 (DU-145 prostate): 1.89 µM
TGI (DU-145 prostate): 3.36 µM
GI50 (EKVX NSCLC): 1.82 µM
TGI (EKVX NSCLC): 3.61 µM
GI50 (HCC-2998 colon): 1.49 µM
TGI (HCC-2998 colon): 2.94 µM
GI50 (HCT-116 colon): 1.53 µM
TGI (HCT-116 colon): 3.05 µM
GI50 (HCT-15 colon): 1.79 µM
TGI (HCT-15 colon): 4.14 µM
GI50 (HL-60(TB) leukemia): 1.77 µM
TGI (HL-60(TB) leukemia): 3.61 µM
GI50 (HOP-62 NSCLC): 1.77 µM
TGI (HOP-62 NSCLC): 3.28 µM
GI50 (HOP-92 NSCLC): 1.2 µM
TGI (HOP-92 NSCLC): 2.71 µM
GI50 (HS 578T breast): 1.59 µM
TGI (HS 578T breast): 3.67 µM
GI50 (HT29 colon): 1.77 µM
TGI (HT29 colon): 3.23 µM
GI50 (K-562 leukemia): 1.61 µM
TGI (K-562 leukemia): 3.41 µM
GI50 (KM12 colon): 1.93 µM
TGI (KM12 colon): 3.45 µM
GI50 (LOX IMVI melanoma): 1.66 µM
TGI (LOX IMVI melanoma): 3.6 µM
GI50 (M14 melanoma): 1.81 µM
TGI (M14 melanoma): 3.38 µM
GI50 (MALME-3M melanoma): 2.01 µM
TGI (MALME-3M melanoma): 4.26 µM
GI50 (MCF7 breast): 1.48 µM
TGI (MCF7 breast): 2.96 µM
GI50 (MDA-MB-231 breast): 1.6 µM
TGI (MDA-MB-231 breast): 3.27 µM
GI50 (MDA-MB-435): 1.8 µM
TGI (MDA-MB-435): 3.56 µM
GI50 (NCI-H226 lung): 1.84 µM
TGI (NCI-H226 lung): 3.72 µM
GI50 (NCI-H23 lung): 1.59 µM
TGI (NCI-H23 lung): 3.32 µM
GI50 (NCI-H460 lung): 1.68 µM
TGI (NCI-H460 lung): 3.3 µM
GI50 (NCI-H522 lung): 1.75 µM
TGI (NCI-H522 lung): 3.35 µM
GI50 (OVCAR-3 ovarian): 1.95 µM
TGI (OVCAR-3 ovarian): 3.46 µM
GI50 (OVCAR-4 ovarian): 1.93 µM
TGI (OVCAR-4 ovarian): 3.77 µM
GI50 (OVCAR-5 ovarian): 1.56 µM
TGI (OVCAR-5 ovarian): 3.08 µM
GI50 (OVCAR-8 ovarian): 1.89 µM
TGI (OVCAR-8 ovarian): 3.86 µM
GI50 (PC-3 prostate): 1.58 µM
TGI (PC-3 prostate): 3.03 µM
GI50 (RPMI-8226 leukemia): 2.07 µM
TGI (RPMI-8226 leukemia): 4.72 µM
GI50 (RXF 393 renal): 1.48 µM
TGI (RXF 393 renal): 2.85 µM
GI50 (SF-268 CNS): 1.84 µM
TGI (SF-268 CNS): 3.71 µM
GI50 (SF-295 CNS): 1.85 µM
TGI (SF-295 CNS): 3.67 µM
GI50 (SF-539 CNS): 1.69 µM
TGI (SF-539 CNS): 3.44 µM
GI50 (SK-MEL-2 melanoma): 2.2 µM
TGI (SK-MEL-2 melanoma): 3.88 µM
GI50 (SK-MEL-28 melanoma): 1.9 µM
TGI (SK-MEL-28 melanoma): 3.41 µM
GI50 (SK-MEL-5 melanoma): 1.71 µM
TGI (SK-MEL-5 melanoma): 3.1 µM
GI50 (SN12C renal): 1.85 µM
TGI (SN12C renal): 3.56 µM
GI50 (SNB-19 CNS): 1.82 µM
TGI (SNB-19 CNS): 3.51 µM
GI50 (SNB-75 CNS): 1.7 µM
TGI (SNB-75 CNS): 3.23 µM
GI50 (SR leukemia): 1.42 µM
TGI (SR leukemia): 3.93 µM
GI50 (SW-620 colon): 1.69 µM
TGI (SW-620 colon): 3.22 µM
GI50 (T-47D breast): 1.74 µM
TGI (T-47D breast): 3.8 µM
GI50 (TK-10 renal): 1.98 µM
TGI (TK-10 renal): 3.51 µM
GI50 (U251 CNS): 1.72 µM
TGI (U251 CNS): 3.2 µM
GI50 (UACC-257 melanoma): 1.83 µM
TGI (UACC-257 melanoma): 3.51 µM
GI50 (UACC-62 melanoma): 1.86 µM
TGI (UACC-62 melanoma): 3.51 µM
GI50 (UO-31 renal): 1.34 µM
TGI (UO-31 renal): 2.83 µM
